The values that follow come from US20240350402A1, “TOPICAL DRUG TREATMENT TO PREVENT OR REDUCE CORNEAL SCARRING” (The Cleveland Clinic Foundation, priority 2021, published 2024).

This experiment concerns α-SMA-positive myofibroblasts. The experiment can be described thus: Alkali burn model: IHC α-SMA-positive stromal area and intensity (ImageJ). It is filed as in vivo, rabbit. The following applies: one month. The method, then:
Alkali injuries were produced in one eye of rabbits with previously published methods^10 using 1N sodium hydroxide (Sigma, St. Louis, MO) in balanced salt solution (BSS, 0.64% sodium chloride, 0.075% potassium chloride, 0.048% calcium chloride dihydrate, […] magnesium chloride hexahydrate, 0.39% sodium acetate trihydrate, 0.17% sodium citrate dihydrate, pH 7.5, Alcon, H. Worth, TX) and a 5 mm diameter circular Whatman No. 1 filter paper (Cat #1001-6508, Fisher Scientific) wetted with 100 μl of 1N NaOH solution. Following the alkali burn injury, the cornea was irrigated profusely with BSS. Each injured cornea also received one drop of ciprofloxacin (Alcon, Ft. Worth, TX, USA) ten minutes after surgery and four times a day for one week and at least 15 minutes apart from the study medications.
Worth TX), at least 5 minutes apart, or 4) 50 μl of BSS. […]
The area of the α-SMA-positive stroma in mm^2 and the total α-SMA opacity in pixels were quantitated using standardized images obtained with a 10× objective on a Leica DM6B upright microscope equipped with an automated stage and Leica 7000 T camera using the LAS X software (Leica Microsystems, GmbH, Wetzlar, Germany). The means of three central corneal sections were analyzed from each cornea to provide the area of α-SMA-positive stroma and the total α-SMA opacity. The area of α-SMA-positive stroma in mm^2 for each cornea was determined from full diameter and thickness central corneal section images (all converted to 300 DPI, 885 width×500 height, files with identical +50% brightness increase in Photoshop for all images) with the ImageJ 1.53a analysis software using the freehand selection tool to delineate the area(s) of α-SMA-positive staining. […] In these same sections for each cornea, the total α-SMA-positive intensity in pixels was also determined with ImageJ, similarly by using the summation if separate α-SMA-positive areas were present. […]

Molecules are shown by their SMILES.

For `CCCCc1nc(Cl)c(CO)n1Cc1ccc(-c2ccccc2-c2nn[nH]n2)cc1` [losartan], the “total α-SMA area vs vehicle control group” value is listed as “trend”. Also, the “localization of α-SMA-positive myofibroblasts in the stroma” value (topical six times per day) is on record as “confined mostly to the posterior half of the stroma”.
